Source: patent US20250145625A1, “PYRAZOLOPYRIMIDINE DERIVATIVE AND ANTICANCER PHARMACEUTICAL COMPOSITION CONTAINING SAME AS ACTIVE INGREDIENT” (KOREA RESEARCH INSTITUTE OF CHEMICAL TECHNOLOGY, priority 2021, published 2025)
Read-outs that look alike come from different tables or passages of the source.

What was measured:
[1] = tested on: MDA-MB-231 triple negative breast cancer cell line; assay: Cytotoxicity in TTK-expressed MDA-MB-231 cells; format: cell-based; settings: Homo sapiens, MDA-MB-231, 120 h, 5 days
Experimental: To determine the cytotoxicity of a compound represented by Chemical Formula 1 according to the present invention to MDA-MB-231 cells, the following test was conducted.
MDA-MB-231 triple negative breast cancer cell line purchased from ATCC was inoculated into each well of a 96-well plate at a volume of 90 μL containing 2,000 cells. Thereafter, an example compound of the present invention was added to respective wells at concentrations of 10 μM, 3 μM, 1 μM, 0.3 μM, 0.1 μM, and 0 μM, and the cells were cultured in a cell incubator at 37° C. for 5 days. Five days later, 10 μL of Cyto X solution (manufacturer: LPS Solution) was added to each of the wells, and the absorbance was measured at 450 nm using an Epoch microplate spectrophotometer (manufacturer: BioTek Instruments Inc.) according to the product's user guide. For cytotoxicity, the IC50 value for cytotoxicity of each compound was calculated by quantifying the number of cells using the measured value.

[2] = tested on: MDA-MB-231 tumor in nude mice; assay: Drug efficacy on nude mice employing MDA-MB-231; format: in vivo; settings: MDA-MB-231, oral 6 mg/kg daily for 4 weeks
Experimental: 5-Week-old female nude mice were subcutaneously injected with 5×10^6 MDA-MB-231 cells into the flank. When the tumor volume reached approximately 50 mm^3, the mice were divided into groups, each containing 5 animals, which were than orally administered a drug. The dosage of the drug was 6 mg/kg and administered daily for 4 weeks.

[3] = tested on: MDA-MB-231 triple negative breast cancer cell line; assay: Cell cycle distribution of co-treatment with paclitaxel in MDA-MB-231 cells; format: cell-based; settings: co-treated with 0.001 μM paclitaxel
Experimental: To determine the change in cell cycle distribution when a compound represented by Chemical Formula 1 according to the present invention and paclitaxel were co-applied to MDA-MB-231 cells, the following test was conducted.
MDA-MB-231 triple negative breast cancer cell line purchased from ATCC was inoculated into each well of a 6-well plate at 100,000 cells. Thereafter, paclitaxel was added at concentrations of 0 μM and 0.001 μM and an example compound of the present invention was added at concentrations of 0 μM, 0.03 μM, or 0.1 μM, and the cells were cultured in a cell incubator at 37° C. for 2 days. After 2 days, the cells were fixed with 70% ethanol, and added and into 200 μL of Muse Cell Cycle reagent in a light-shielded state and cultured for 30 minutes. Then, the cell cycle distribution was analyzed using a Muse Cell Analyzer (manufacturer: Merck, Millipore), and the results are shown in FIG. 6.

[4] = tested on: HCT116 colon cancer cell line; assay: Cytotoxicity in TTK-expressed HCT116 cells; format: cell-based; settings: Homo sapiens, HCT-116, 120 h, 5 days
Experimental: To determine the cytotoxicity of a compound represented by Chemical Formula 1 according to the present invention to HCT116 cells, the following test was conducted.
HCT116 colon cancer cell line purchased from ATCC was inoculated into each well of a 96-well plate at a volume of 90 μL containing 2,000 cells. Thereafter, an example compound of the present invention was added to respective wells at concentrations of […], 3 μM, 1 μM, 0.3 μM, 0.1 μM, and 0 μM, and the cells were cultured in a cell incubator at 37° C. for 5 days. After 5 days, the number of cells was measured by CCK8 test method, and the cytotoxicity was determined by calculating the IC50 value for cytotoxicity of each compound.

[5] = target: IR(h), activated (Homo sapiens (Human), UniProt P06213); assay: Kinase activity inhibitory ability (panel); format: biochemical; settings: compound at 500 nM
[6] = target: recombinant human TTK protein (Homo sapiens (Human), UniProt P33981); assay: Evaluation of TTK activity inhibitory ability (scintillation counting); format: biochemical;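 also: reaction stopped with 0.5% phosphoric acid, spotted on P30 filter, TTK activity counted by scintillation, uninhibited no-compound wells taken as 100% control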
Experimental: To determine the ability of a compound represented by Chemical Formula 1 according to the present invention to inhibit TTK activity, the following experiment was conducted.
After that, the reaction was terminated by adding phosphoric acid to a concentration of 0.5%, and 10 of the reaction solution was dropped onto a P30 filter. […] The activity of TTK was measured through scintillation counting. The activity value from the group with no compound was set as 100% of control, and the degree of TTK inhibition by the compound was calculated.

[7] = target: ALK(h) (Homo sapiens (Human), UniProt Q9UM73); assay: Kinase activity inhibitory ability (panel); format: biochemical; settings: compound at 500 nM
[8] = target: IRR(h) (Homo sapiens (Human), UniProt P14616); assay: Kinase activity inhibitory ability (panel); format: biochemical; settings: compound at 500 nM
[9] = target: LTK(h) (Homo sapiens (Human), UniProt P29376); assay: Kinase activity inhibitory ability (panel); format: biochemical; settings: compound at 500 nM
[10] = target: TTK(h) (Homo sapiens (Human), UniProt P33981); assay: Kinase activity inhibitory ability (panel); format: biochemical
[11] = TTK inhibitory activity, read-out: IC50

TTK(h), sequence (P33981 whole entry): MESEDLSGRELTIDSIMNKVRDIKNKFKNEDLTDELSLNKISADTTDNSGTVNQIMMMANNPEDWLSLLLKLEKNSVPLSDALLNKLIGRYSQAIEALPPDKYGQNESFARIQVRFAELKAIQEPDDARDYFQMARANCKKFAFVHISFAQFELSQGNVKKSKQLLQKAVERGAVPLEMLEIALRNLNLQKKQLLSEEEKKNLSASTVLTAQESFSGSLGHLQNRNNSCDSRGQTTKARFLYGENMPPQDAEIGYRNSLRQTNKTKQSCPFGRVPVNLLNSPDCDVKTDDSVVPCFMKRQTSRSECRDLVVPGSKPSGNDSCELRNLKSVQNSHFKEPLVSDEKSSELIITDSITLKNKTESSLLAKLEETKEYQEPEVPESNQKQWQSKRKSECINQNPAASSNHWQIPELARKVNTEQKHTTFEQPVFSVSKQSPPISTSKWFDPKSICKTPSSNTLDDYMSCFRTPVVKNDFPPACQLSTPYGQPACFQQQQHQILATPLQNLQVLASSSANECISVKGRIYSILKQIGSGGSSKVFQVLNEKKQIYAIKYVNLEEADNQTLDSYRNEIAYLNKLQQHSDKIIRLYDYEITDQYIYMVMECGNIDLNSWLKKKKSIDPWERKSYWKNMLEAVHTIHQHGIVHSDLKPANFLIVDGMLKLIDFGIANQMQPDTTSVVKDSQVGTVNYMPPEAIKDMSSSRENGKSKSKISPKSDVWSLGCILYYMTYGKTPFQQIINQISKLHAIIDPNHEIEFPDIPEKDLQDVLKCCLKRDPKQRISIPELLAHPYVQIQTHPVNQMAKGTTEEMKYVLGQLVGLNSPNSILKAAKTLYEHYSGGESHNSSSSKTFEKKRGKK
recombinant human TTK protein, sequence (P33981 whole entry): as above
IRR(h), sequence (P14616 27-1297): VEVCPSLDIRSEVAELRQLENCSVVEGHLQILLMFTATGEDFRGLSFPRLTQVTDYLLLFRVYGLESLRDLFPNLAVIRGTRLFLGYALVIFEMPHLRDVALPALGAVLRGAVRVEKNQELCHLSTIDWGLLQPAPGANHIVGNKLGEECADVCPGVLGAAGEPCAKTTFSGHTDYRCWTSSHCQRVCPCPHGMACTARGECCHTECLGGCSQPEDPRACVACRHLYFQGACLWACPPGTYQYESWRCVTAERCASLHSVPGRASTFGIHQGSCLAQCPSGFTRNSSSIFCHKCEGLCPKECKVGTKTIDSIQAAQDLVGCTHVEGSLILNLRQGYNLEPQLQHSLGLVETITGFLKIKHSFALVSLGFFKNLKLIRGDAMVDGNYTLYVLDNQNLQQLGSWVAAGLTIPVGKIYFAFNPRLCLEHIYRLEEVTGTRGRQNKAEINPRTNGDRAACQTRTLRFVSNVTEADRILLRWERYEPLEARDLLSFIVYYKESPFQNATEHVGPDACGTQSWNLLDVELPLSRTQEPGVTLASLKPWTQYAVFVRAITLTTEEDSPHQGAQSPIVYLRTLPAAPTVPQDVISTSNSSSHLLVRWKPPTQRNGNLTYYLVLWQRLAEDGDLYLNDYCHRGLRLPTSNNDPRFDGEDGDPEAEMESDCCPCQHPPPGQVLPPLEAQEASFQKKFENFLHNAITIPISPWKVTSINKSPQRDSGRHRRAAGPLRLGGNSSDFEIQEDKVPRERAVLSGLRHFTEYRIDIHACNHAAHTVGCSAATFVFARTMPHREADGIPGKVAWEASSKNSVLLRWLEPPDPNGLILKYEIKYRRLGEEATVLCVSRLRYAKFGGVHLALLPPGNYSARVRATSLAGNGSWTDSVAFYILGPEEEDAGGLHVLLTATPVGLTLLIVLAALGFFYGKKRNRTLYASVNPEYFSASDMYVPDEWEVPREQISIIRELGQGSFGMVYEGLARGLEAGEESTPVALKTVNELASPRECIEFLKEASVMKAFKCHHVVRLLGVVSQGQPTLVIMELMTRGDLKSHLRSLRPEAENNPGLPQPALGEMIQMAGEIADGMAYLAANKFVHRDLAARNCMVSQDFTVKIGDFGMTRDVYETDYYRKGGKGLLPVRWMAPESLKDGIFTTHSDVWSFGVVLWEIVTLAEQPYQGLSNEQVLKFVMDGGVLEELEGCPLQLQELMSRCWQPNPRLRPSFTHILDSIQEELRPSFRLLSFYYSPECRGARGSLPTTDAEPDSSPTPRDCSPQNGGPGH
IR(h), activated, sequence (P06213 28-1382): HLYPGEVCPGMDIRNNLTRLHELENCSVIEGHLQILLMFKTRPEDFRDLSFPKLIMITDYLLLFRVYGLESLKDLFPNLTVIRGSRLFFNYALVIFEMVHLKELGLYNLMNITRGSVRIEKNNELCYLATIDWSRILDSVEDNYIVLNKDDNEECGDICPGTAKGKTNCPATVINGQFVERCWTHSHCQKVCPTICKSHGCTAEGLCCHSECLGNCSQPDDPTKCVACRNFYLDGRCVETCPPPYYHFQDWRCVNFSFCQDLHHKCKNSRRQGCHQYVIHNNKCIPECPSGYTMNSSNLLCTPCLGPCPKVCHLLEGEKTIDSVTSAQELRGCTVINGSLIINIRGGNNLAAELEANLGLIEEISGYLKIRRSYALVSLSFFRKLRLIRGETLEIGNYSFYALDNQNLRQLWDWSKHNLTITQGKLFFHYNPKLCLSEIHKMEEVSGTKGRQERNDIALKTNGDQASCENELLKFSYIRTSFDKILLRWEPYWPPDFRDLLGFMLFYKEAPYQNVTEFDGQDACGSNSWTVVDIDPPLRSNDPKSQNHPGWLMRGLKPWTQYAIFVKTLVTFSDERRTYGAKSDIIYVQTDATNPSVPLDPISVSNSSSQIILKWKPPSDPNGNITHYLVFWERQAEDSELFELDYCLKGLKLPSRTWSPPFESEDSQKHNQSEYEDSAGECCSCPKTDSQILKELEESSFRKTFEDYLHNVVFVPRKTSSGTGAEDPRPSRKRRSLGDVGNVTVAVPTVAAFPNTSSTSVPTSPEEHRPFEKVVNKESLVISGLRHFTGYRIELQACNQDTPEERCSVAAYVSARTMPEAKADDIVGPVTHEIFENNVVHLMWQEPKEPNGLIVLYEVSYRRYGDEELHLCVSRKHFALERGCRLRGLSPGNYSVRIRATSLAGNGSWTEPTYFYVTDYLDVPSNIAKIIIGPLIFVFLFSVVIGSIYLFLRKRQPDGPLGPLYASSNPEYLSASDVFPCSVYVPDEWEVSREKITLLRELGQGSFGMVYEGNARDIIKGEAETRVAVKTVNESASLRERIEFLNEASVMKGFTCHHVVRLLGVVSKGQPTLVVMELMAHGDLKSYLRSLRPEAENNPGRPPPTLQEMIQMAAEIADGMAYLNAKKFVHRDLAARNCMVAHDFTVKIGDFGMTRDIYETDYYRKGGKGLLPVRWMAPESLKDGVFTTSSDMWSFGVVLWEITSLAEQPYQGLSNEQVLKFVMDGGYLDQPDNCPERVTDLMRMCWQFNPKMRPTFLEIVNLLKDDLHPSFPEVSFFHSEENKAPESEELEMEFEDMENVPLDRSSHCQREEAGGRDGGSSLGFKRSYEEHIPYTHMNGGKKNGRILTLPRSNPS
ALK(h), sequence (Q9UM73 19-1620): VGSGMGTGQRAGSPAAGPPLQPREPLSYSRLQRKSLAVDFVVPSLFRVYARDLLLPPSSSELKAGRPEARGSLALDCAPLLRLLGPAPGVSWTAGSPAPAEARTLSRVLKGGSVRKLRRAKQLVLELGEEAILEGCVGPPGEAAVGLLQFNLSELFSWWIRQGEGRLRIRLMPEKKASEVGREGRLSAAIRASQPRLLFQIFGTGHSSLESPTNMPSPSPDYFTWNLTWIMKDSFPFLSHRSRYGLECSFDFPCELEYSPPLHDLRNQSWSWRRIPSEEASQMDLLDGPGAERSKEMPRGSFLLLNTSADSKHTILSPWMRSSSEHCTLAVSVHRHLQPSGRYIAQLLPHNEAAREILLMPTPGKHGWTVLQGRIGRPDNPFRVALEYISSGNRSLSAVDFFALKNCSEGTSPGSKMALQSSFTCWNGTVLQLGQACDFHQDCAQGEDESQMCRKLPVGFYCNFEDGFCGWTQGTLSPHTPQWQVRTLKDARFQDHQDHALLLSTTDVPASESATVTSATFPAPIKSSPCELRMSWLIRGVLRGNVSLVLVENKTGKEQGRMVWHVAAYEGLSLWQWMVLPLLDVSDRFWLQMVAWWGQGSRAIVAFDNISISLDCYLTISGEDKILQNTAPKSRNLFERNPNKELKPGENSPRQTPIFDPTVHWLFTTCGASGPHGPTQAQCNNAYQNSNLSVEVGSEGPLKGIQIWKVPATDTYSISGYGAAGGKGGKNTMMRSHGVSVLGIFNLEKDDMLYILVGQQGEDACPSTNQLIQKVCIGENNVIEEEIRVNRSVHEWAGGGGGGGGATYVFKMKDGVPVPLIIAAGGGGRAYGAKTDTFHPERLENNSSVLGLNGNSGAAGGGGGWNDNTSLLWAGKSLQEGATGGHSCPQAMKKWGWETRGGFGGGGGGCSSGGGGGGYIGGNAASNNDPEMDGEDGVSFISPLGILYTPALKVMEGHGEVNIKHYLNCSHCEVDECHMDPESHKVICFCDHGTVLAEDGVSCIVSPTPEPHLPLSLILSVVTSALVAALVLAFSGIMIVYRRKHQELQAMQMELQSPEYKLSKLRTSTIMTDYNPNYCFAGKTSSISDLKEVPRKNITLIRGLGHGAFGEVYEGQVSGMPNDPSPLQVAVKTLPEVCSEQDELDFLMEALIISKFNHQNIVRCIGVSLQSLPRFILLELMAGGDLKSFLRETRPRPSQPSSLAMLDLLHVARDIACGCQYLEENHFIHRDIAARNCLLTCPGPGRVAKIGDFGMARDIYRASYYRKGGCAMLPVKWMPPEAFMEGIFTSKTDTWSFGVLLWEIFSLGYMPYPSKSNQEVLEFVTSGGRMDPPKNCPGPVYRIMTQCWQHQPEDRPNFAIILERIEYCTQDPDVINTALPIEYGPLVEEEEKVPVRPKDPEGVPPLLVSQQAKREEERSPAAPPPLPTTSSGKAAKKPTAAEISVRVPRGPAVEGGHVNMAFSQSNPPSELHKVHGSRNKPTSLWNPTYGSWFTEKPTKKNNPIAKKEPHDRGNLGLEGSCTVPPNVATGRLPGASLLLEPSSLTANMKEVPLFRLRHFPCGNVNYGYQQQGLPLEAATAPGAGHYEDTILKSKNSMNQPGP

With `Cc1cc(-c2cnn3c(NC[C@H]4C[C@@](C)(O)C4)cc(Oc4cccnc4)nc23)ccc1C(=O)NC1CC1` [Comparative Example 1, CFI-402257, reference compound] the IC50 [1] was less than 150 nM, the “tumor volume over time” value [2] was “reduced” and the “change in cell distribution on co-treatment” value [3] was “enhanced changes in cell distribution”. It also gave an IC50 [4] of less than 150 nM.

Work on `COc1ccc(Cn2nc(-c3cn[nH]c3)c3c(NC4CCCCC4)nc(Nc4ccc(N5CCOCC5)cc4OC)nc32)cc1` [Compound 8-8, N^4-cyclohexyl-N^6-(2-methoxy-4-morpholinophenyl)-1-(4-methoxybenzyl)-3-(1H-pyrazol-4-yl)-1H-pyrazolo[3,4-d]pyrimidine-4,6-diamine] yielded an activity at 0.5 µM [5] of 8%, an inhibition at 0.5 µM [5] greater than 90% and an IC50 [6] of 30 to 100 nM. For the same compound, the IC50 [1] was less than 150 nM, the activity at 0.5 µM [7] was 2% and the inhibition at 0.5 µM [7] was greater than 90%. It also gave an activity at 0.5 µM [8] of 7%, an inhibition at 0.5 µM [8] greater than 90% and an IC50 [4] of less than 150 nM. The activity at 0.5 µM [9] was 2%, the inhibition at 0.5 µM [9] was greater than 90% and the “TTK activity inhibition (in words)” value ([10]; 500 nM) was “completely inhibited TTK activity”. It also gave an activity at 0.5 µM ([10]; TTK(h), compound at 500 nM) of -7% and an inhibition at 0.5 µM ([10]; TTK(h), compound at 500 nM) greater than 90%.

`COc1cc(-c2nncn2C)ccc1Nc1nc(NC2CCCCC2)c2c(-c3cnn(C)c3)n[nH]c2n1` [Compound 11-2, N^4-cyclohexyl-N^6-(2-methoxy-4-(4-methyl-4H-1,2,4-triazol-3-yl)phenyl)-3-(1-methyl-1H-pyrazol-4-yl)-1H-pyrazolo[3,4-d]pyrimidine-4,6-diamine] was tested, and the IC50 [6, 11] was less than 30 nM, the IC50 [1] was less than 150 nM and the IC50 [4] was less than 150 nM.

Compound `CNC(=O)c1ccc(Nc2nc(NC3CCCCC3)c3c(-c4cnn(C)c4)n[nH]c3n2)c(OC)c1` [Compound 11-3, 4-((4-(cyclohexylamino)-3-(1-methyl-1H-pyrazol-4-yl)-1H-pyrazolo[3,4-d]pyrimidin-6-yl)amino)-3-methoxy-N-methylbenzamide] has an IC50 [6, 11] of less than 30 nM, an IC50 [1] of less than 150 nM and an IC50 [4] of 150 to 500 nM.

Work on `COc1cc(C(=O)N2CCOCC2)ccc1Nc1nc(NC2CCCCC2)c2c(-c3cnn(C)c3)n[nH]c2n1` [Compound 11-4, (4-((4-(cyclohexylamino)-3-(1-methyl-1H-pyrazol-4-yl)-1H-pyrazolo[3,4-d]pyrimidin-6-yl)amino)-3-methoxyphenyl)(morpholino)methanone] yielded an IC50 [6, 11] of less than 30 nM, an IC50 [1] of 150 to 500 nM and an IC50 [4] of 150 to 500 nM.

In the case of `COc1cc(C(=O)N2CCN(C)CC2)ccc1Nc1nc(NC2CCCCC2)c2c(-c3cnn(C)c3)n[nH]c2n1` [Compound 11-5, (4-((4-(cyclohexylamino)-3-(1-methyl-1H-pyrazol-4-yl)-1H-pyrazolo[3,4-d]pyrimidin-6-yl)amino)-3-methoxyphenyl)(4-methylpiperazin-1-yl)methanone], the IC50 [6, 11] is reported as 30 to 100 nM, the IC50 [1] is reported as 500 to 1000 nM and the IC50 [4] is reported as 150 to 500 nM.

Work on `COc1cc(N2CCOCC2)ccc1Nc1nc(NC2CCCCC2)c2c(-c3nncn3C)n[nH]c2n1` [Compound 14-1, N^4-cyclohexyl-N^6-(2-methoxy-4-morpholinophenyl)-3-(4-methyl-4H-1,2,4-triazol-3-yl)-1H-pyrazolo[3,4-d]pyrimidine-4,6-diamine] yielded an IC50 [6, 11] of 30 to 100 nM, an IC50 [1] of less than 150 nM and an IC50 [4] of 150 to 500 nM.

For `COc1cc(N2CCOCC2)ccc1Nc1nc(NC2CCCCC2)c2c(-c3nnco3)n[nH]c2n1` [Compound 14-2, N^4-cyclohexyl-N^6-(2-methoxy-4-morpholinophenyl)-3-(1,3,4-oxadiazol-2-yl)-1H-pyrazolo[3,4-d]pyrimidine-4,6-diamine], the IC50 [6, 11] was 30 to 100 nM, the IC50 [1] was 150 to 500 nM and the IC50 [4] was 150 to 500 nM.

For `COc1cc(N2CCOCC2)ccc1Nc1nc(NC2CCCCC2)c2c(-c3n[nH]c(=O)o3)n[nH]c2n1` [Compound 14-3, 5-(4-(cyclohexylamino)-6-((2-methoxy-4-morpholinophenyl)amino)-1H-pyrazolo[3,4-d]pyrimidin-3-yl)-1,3,4-oxadiazol-2(3H)-one], the IC50 [6, 11] was 30 to 100 nM, the IC50 [1] was 150 to 500 nM and the IC50 [4] was less than 150 nM.

`COc1cc(N2CCOCC2)ccc1Nc1nc(NC2CCCCC2)c2c(-c3cnco3)n[nH]c2n1` [Compound 18-1, N^4-cyclohexyl-N^6-(2-methoxy-4-morpholinophenyl)-3-(oxazol-5-yl)-1H-pyrazolo[3,4-d]pyrimidine-4,6-diamine] showed an IC50 [6, 11] of less than 30 nM, an IC50 [1] of less than 150 nM and an IC50 [4] of less than 150 nM.

In the case of `COc1cc(N2CCOCC2)ccc1Nc1nc(NC2CCCCC2)c2c(-c3cnc[nH]3)n[nH]c2n1` [Compound 18-2, N^4-cyclohexyl-3-(1H-imidazol-5-yl)-N^6-(2-methoxy-4-morpholinophenyl)-1H-pyrazolo[3,4-d]pyrimidine-4,6-diamine], the IC50 [6, 11] is reported as 30 to 100 nM, the IC50 [1] is reported as 500 to 1000 nM and the IC50 [4] is reported as 500 to 1000 nM.

For `COc1cc(N2CCOCC2)ccc1Nc1nc(NC2CCCCC2)c2c(-c3cn(C)nn3)n[nH]c2n1` [Compound 21-2, N^4-cyclohexyl-N^6-(2-methoxy-4-morpholinophenyl)-3-(1-methyl-1H-1,2,3-triazol-4-yl)-1H-pyrazolo[3,4-d]pyrimidine-4,6-diamine], the IC50 [6, 11] was less than 30 nM, the IC50 [1] was less than 150 nM and the IC50 [4] was less than 150 nM.

In the case of `COc1cc(N2CCOCC2)ccc1Nc1nc(NC2CCOCC2)c2c(-c3cn(C)nn3)n[nH]c2n1` [Compound 21-3, N^6-(2-methoxy-4-morpholinophenyl)-3-(1-methyl-1H-1,2,3-triazol-4-yl)-N^4-(tetrahydro-2H-pyran-4-yl)-1H-pyrazolo[3,4-d]pyrimidine-4,6-diamine], the IC50 [6, 11] is reported as 30 to 100 nM, the IC50 [1] is reported as 150 to 500 nM and the IC50 [4] is reported as less than 150 nM.

With `CC(C)Oc1cc(N2CCOCC2)ccc1Nc1nc(NC2CCCCC2)c2c(-c3cnn(C)c3)n[nH]c2n1` [Compound 26-1, N^4-cyclohexyl-N^6-(2-isopropoxy-4-morpholinophenyl)-3-(1-methyl-1H-pyrazol-4-yl)-1H-pyrazolo[3,4-d]pyrimidine-4,6-diamine] the IC50 [6, 11] was 30 to 100 nM, the IC50 [1] was 150 to 500 nM and the IC50 [4] was 500 to 1000 nM.

`COc1cc(N2CCOCC2)ccc1Nc1nc(Nc2ccccc2)c2c(-c3cnn(C)c3)n[nH]c2n1` [Compound 26-2, N^6-(2-methoxy-4-morpholinophenyl)-3-(1-methyl-1H-pyrazol-4-yl)-N^4-phenyl-1H-pyrazolo[3,4-d]pyrimidine-4,6-diamine] showed an IC50 [6, 11] of less than 30 nM, an IC50 [1] greater than 1000 nM and an IC50 [4] greater than 1000 nM.

`COc1cc(N2CCOCC2)ccc1Nc1nc(NC2CCOCC2)c2c(-c3cnco3)n[nH]c2n1` [Compound 33-1, N^6-(2-methoxy-4-morpholinophenyl)-3-(oxazol-5-yl)-N^4-(tetrahydro-2H-pyran-4-yl)-1H-pyrazolo[3,4-d]pyrimidine-4,6-diamine] was tested, and the IC50 [6, 11] was less than 30 nM, the IC50 [1] was less than 150 nM and the IC50 [4] was less than 150 nM.

`CNC(=O)c1ccc(Nc2nc(NC3CCOCC3)c3c(-c4cnco4)n[nH]c3n2)c(OC)c1` [Compound 33-2, 3-methoxy-N-methyl-4-((3-(oxazol-5-yl)-4-((tetrahydro-2H-pyran-4-yl)amino)-1H-pyrazolo[3,4-d]pyrimidin-6-yl)amino)benzamide] was tested, and the IC50 [6, 11] was less than 30 nM, the IC50 [1] was 150 to 500 nM and the IC50 [4] was 500 to 1000 nM.

`COc1cc(-c2nncn2C)ccc1Nc1nc(NC2CCOCC2)c2c(-c3cnco3)n[nH]c2n1` [Compound 33-3, N^6-(2-methoxy-4-(4-methyl-4H-1,2,4-triazol-3-yl)phenyl)-3-(oxazol-5-yl)-N^4-(tetrahydro-2H-pyran-4-yl)-1H-pyrazolo[3,4-d]pyrimidine-4,6-diamine] gave an IC50 [6, 11] of less than 30 nM, an IC50 [1] of 500 to 1000 nM and an IC50 [4] greater than 1000 nM.
